Results published in patent US20250197420A1, “MACROCYCLIC COMPOUNDS, COMPOSITIONS, AND METHODS OF USING THEREOF” (Sionna Therapeutics Inc., priority 2022, published 2025).

How the values were obtained:
[1] = test system: Primary human bronchial epithelial cells from a ΔF508 homozygous CF donor (CF-HBE cells); test: TECC24 recording of CFTR-mediated transepithelial chloride transport, AUC fold over benchmark VX-809 @10 μM; assay type: cell-based; details: 48 hours incubation, AUC of forskolin-stimulated IEQ
Method in brief: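 Values are the forskolin-to-inhibitor-172 AUC of equivalent Cl− current, derived from transepithelial voltage and resistance, divided by the VX-809 AUC and binned as A <3, B 3–6, C 6–20. Cells were pre-incubated with compound for 48 h at 36.5 °C; the bath (pH 7.4) received benzamil 10 μM, forskolin 10 μM, then CFTRinh-172 20 μM.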

[2] = molecular target: T1, Purified recombinant NBD1 (Homo sapiens, UniProt P13569); test: Aggregation analysis using differential static light scattering (DSLS): thermal stability of NBD1; assay type: binding; details: NBD1 0.2 mg/ml; Tagg of compound well minus average Tagg of DMSO control wells
T1 construct: Purified recombinant NBD1 was produced using previously described methods; made in house
Method in brief: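 ΔTagg is compound-well aggregation temperature minus the DMSO-control mean, each Tagg being the inflection point of light scattering measured by DSLS during a 1 °C/min ramp up to 70 °C. The protein was purified NBD1 (0.2 mg/ml) in pH 7.6 buffer containing 2 mM ATP, 5 mM MgCl2 and 1% glycerol.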

T1 sequence (P13569 423-646 limits assumed): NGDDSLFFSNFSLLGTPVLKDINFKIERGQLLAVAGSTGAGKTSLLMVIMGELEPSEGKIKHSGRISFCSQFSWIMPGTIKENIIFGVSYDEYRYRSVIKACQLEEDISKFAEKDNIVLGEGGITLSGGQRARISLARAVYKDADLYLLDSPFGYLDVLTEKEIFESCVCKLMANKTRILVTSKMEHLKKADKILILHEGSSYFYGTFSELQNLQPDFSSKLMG

## C[C@H](Cc1cccc([C@@]2(C)CCCCC(C)(C)CN(C)C(=O)Cc3c(c(F)cc4[nH]ccc34)Oc3ccnc(c3)-c3nc2nn3C)c1)C(=O)O [Compound 122, (2R)-3-[3-[(6R)-23-fluoro-3,6,11,11,13-pentamethyl-14-oxo-25-oxa-3,4,13,20,29,31-hexazapentacyclo[24.3.1.12,5.016,24.017,21]hentriaconta-1(30),2(31),4,16,18,21,23,26,28-nonaen-6-yl]phenyl]-2-methyl-propanoic acid]
[1]
  TECC (test agent AUC divided by VX-809 AUC): A (a TECC value less than 3 is marked “A”)
[2]
  DSLS (ΔTagg): B (a value above 5 °C and less than or equal to 10 °C is marked “B”)

## CN1CC(C)(C)CCCC(c2cccc(CCC(=O)O)c2F)c2cnc([nH]2)-c2cc(ccc2F)Oc2c(F)cc3[nH]ccc3c2CCC1=O (stereo not drawn) [Compound 28, 3-[3-(23,29-Difluoro-10,10,12-trimethyl-13-oxo-25-oxa-3,12,20,31-tetrazapentacyclo[24.3.1.12,5.016,24.017,21]hentriaconta-1(30),2,4,16,18,21,23,26,28-nonaen-6-yl)-2-fluoro-phenyl]propanoic acid]
[1]
  TECC (test agent AUC divided by VX-809 AUC): A (a TECC value less than 3 is marked “A”)
[2]
  DSLS (ΔTagg): C (a value greater than 10 °C and less than or equal to 25 °C is marked “C”)

## C[C@@H](Cc1cccc(C2(C)CCCC(C)(C)NS(=O)(=O)CCc3c(c(F)cc4[nH]ccc34)Oc3ccc(F)c(c3)-c3nc2nn3C)c1)C(=O)O (stereo partly drawn) [Compound 116, (2S)-3-[3-(22,28-difluoro-3,6,10,10-tetramethyl-12,12-dioxo-24-oxa-12λ6-thia-3,4,11,19,30-pentazapentacyclo[23.3.1.12,5.015,23.016,20]triaconta-1(29),2(30),4,15,17,20,22,25,27-nonaen-6-yl)phenyl]-2-methyl-propanoic acid]
[1]
  TECC (test agent AUC divided by VX-809 AUC): B (a value between 3 and 6 is marked “B”)
[2]
  DSLS (ΔTagg): C (a value greater than 10 °C and less than or equal to 25 °C is marked “C”)

## CN1CC(O)CCCCCC(C)(c2cccc(CCC(=O)O)c2)c2cnc([nH]2)-c2cc(ccc2F)Oc2c(F)cc3[nH]ccc3c2CC1=O (stereo not drawn) [Compound 112, 3-[3-(24,30-Difluoro-12-hydroxy-6,14-dimethyl-15-oxo-26-oxa-3,14,21,32-tetrazapentacyclo[25.3.1.12,5.017,25.018,22]dotriaconta-1(30),2,4,17(25),18(22),19,23,27(31),28-nonaen-6-yl)phenyl]propanoic acid]
[1]
  TECC (test agent AUC divided by VX-809 AUC): B (a value between 3 and 6 is marked “B”)
[2]
  DSLS (ΔTagg): C (a value greater than 10 °C and less than or equal to 25 °C is marked “C”)

## CN1CC(C)(C)CCC(C)(c2cccc(CCC(=O)O)c2)c2nc(n(C)n2)-c2cc(ccc2F)Oc2c(F)cc3[nH]ccc3c2CCC1=O (single isomer, unassigned) [Compound 75B, 3-[3-(22,28-difluoro-3,6,9,9,11-pentamethyl-12-oxo-24-oxa-3,4,11,19,30-pentazapentacyclo[23.3.1.12,5.015,23.016,20]triaconta-1(29),2(30),4,15,17,20,22,25,27-nonaen-6-yl)phenyl]propanoic acid]
[1]
  TECC (test agent AUC divided by VX-809 AUC): A (a TECC value less than 3 is marked “A”)
[2]
  DSLS (ΔTagg): A (an ΔTagg value less than or equal to 5 °C is marked “A”)

## CC1(c2cccc(CCC(=O)O)c2)CCCC2(CC2)CNC(=O)CCc2c(c(F)cc3[nH]ccc23)Oc2ccc(F)c(c2)-c2ncc1[nH]2 (stereo not drawn) [Compound 36, 3-[3-(23,29-Difluoro-6-methyl-13-oxo-spiro[25-oxa-3,12,20,31-tetrazapentacyclo[24.3.1.12,5.016,24.017,21]hentriaconta-1(30),2,4,16,18,21,23,26,28-nonaene-10,1′-cyclopropane]-6-yl)phenyl]propanoic acid]
[1]
  TECC (test agent AUC divided by VX-809 AUC): B (a value between 3 and 6 is marked “B”)
[2]
  DSLS (ΔTagg): C (a value greater than 10 °C and less than or equal to 25 °C is marked “C”)
